Assay results published in patent publication US7498447B2, “Therapeutic compounds” (Allergan, Inc., priority 2006, dated 2009).

Key:
EP2 [1] = molecular target: T1, EP2 (Homo sapiens, UniProt P43116); experiment: EP2 flipr; type: cell-based
Text: (§1) U.S. patent application Ser. No. 11/553,143, filed on Oct. 26, 2006, incorporated by reference herein, describes the methods used to obtain the in vitro data in the tables below.

EP4 [2] = molecular target: T2, EP4 (Homo sapiens, UniProt P35408); experiment: EP4 binding (KI)
T2 sequence (P35408 whole entry): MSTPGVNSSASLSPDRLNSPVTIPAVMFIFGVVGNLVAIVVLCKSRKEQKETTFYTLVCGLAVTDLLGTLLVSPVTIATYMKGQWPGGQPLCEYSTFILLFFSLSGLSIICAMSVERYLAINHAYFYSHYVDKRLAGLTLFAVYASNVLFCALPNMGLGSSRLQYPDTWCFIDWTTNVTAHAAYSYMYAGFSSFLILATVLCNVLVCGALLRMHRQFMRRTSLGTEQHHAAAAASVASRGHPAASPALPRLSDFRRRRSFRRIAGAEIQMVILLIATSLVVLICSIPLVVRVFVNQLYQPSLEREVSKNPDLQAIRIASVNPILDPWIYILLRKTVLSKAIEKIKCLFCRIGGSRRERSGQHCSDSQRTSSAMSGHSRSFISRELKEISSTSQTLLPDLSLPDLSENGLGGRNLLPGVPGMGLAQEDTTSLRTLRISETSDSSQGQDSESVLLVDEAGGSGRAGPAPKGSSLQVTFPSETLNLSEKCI
Text: as §1

EP2 [3] = molecular target: T1, EP2; experiment: EP2 binding (Ki)
Text: as §1

EP4 [4] = molecular target: T2, EP4; experiment: EP4 flipr; type: cell-based
Text: as §1

EP2 [5] = molecular target: T1, EP2; experiment: EP2 cAMP; type: cell-based
Text: as §1

T1 sequence (P43116 whole entry): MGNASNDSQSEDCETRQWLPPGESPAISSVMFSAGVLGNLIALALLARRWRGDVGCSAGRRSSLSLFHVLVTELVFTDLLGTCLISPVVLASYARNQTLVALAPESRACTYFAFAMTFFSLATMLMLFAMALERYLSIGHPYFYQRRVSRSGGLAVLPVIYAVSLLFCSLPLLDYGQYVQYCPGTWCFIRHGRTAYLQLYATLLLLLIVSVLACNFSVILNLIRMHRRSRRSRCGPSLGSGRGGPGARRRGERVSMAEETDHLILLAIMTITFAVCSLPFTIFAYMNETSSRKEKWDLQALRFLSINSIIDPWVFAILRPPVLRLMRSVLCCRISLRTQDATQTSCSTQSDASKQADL

| SMILES | EC50 (EP2 [1]) [nM] | Ki (EP4 [2]) [nM] | Ki (EP2 [3]) [nM] | EC50 (EP4 [4]) [nM] | EC50 (EP2 [5]) [nM] |
| --- | --- | --- | --- | --- | --- |
| CCCC/C=C/c1ccc(N2CC[C@@H](Cl)[C@@H]2COCc2ccc(C(=O)O)s2)cc1 [5-((((2S,3R)-3-chloro-1-(4-((E)-hex-1-enyl)phenyl)pyrrolidin-2-yl)methoxy)methyl)thiophene-2-carboxylic acid] | 8420 | 1490 | 3010 | > 10000 | 327 |
| CCCCCC(O)c1ccc(N2CC[C@@H](Cl)[C@@H]2COCc2ccc(C(=O)O)s2)cc1 (stereo partly drawn) [5-((((2S,3R)-3-chloro-1-(4-(1-hydroxyhexyl)phenyl)pyrrolidin-2-yl)methoxy)methyl)thiophene-2-carboxylic acid] | 2180 | > 10000 | 1840 | – | 339 |
| CCCCCC(=O)c1ccc(N2CC[C@@H](Cl)[C@@H]2COCc2ccc(C(=O)O)s2)cc1 [5-((((2S,3R)-3-chloro-1-(4-hexanoylphenyl)pyrrolidin-2-yl)methoxy)methyl)thiophene-2-carboxylic acid] | 3810 | 1020 | 85 | > 10000 | 17 |
